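These data come from cells grown in 96-well plates and exposed to compound for 48 hours at five concentrations. GI50: concentration for 50% inhibition of growth. TGI: total growth inhibition.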 Bounds are passed on as bounds.

Consider 8 molecules from PubChem BioAssay (NCI).

What all share (test): NCI anticancer screen, dose series, 48 h
In assay [1] the test system is NCI-H23 lung.
The test system of assay [2] is MDA-MB-231 breast.
For assay [3], the system named is MCF7 breast.
In assay [4] the test system is OVCAR-5 ovarian.
Assay [5] concerns MALME-3M melanoma.
Assay [6] deals with NCI-H226 lung.
Assay [7] concerns U251 CNS.
In assay [8] the test system is SW-620 colon.
Assay [9] has as its system HCC-2998 colon.
The subject of assay [10] is MDA-MB-435.

Regarding `CN1CCN(c2cc(C(=O)Nc3cc4cc(-c5cnn(C)c5)ccc4cn3)ccn2)CC1`, the GI50 in assay [1] was 0.111 µM; in assay [2], 0.219 µM; in [3] it was 0.0911 µM; in [4] it was 0.308 µM; in assay [5], 0.155 µM; in assay [6], 0.205 µM. Also, the GI50 was 0.188 µM in assay [7], 0.0422 µM in [8], 0.276 µM in assay [9] and 0.169 µM in [10]. Besides, the TGI in assay [1] amounted to 3.29 µM; in assay [2], 3.75 µM; in assay [3], 0.399 µM; in assay [4] it was 11.9 µM; in [5], 0.584 µM; in [6], 12 µM. Moreover, the TGI in assay [7] was 13.2 µM; in assay [8] it was 11.7 µM; in assay [9] it was 4.57 µM; in assay [10] it was 13.2 µM.

Regarding `CN1CCN(c2ccc(Nc3nc(N)c(C(=O)c4ccc5c(c4)OCCO5)s3)cc2)CC1`, the GI50 in [1] was 3.69 µM; in [2], 3.22 µM; in assay [3], 2.85 µM; in assay [4], 2.86 µM; in [5], 2.72 µM; in assay [6], 2.71 µM. The GI50 was 2.83 µM in [7], 3.63 µM in assay [8], 9.67 µM in [9] and 3.44 µM in assay [10]. In addition, the TGI in assay [1] was 11.3 µM; in [2] it was 9.94 µM; in [3], 7.73 µM; in [4], 8.48 µM; in assay [5], 8.34 µM; in [6], 11.8 µM. Also, the TGI was 11 µM in [7], more than 17.7 µM in assay [8], more than 19.6 µM in assay [9] and 12.2 µM in [10].

On to `C[C@@H]1Cc2c([nH]c3ccccc23)[C@@H](c2c(F)cc(NC3CN(CCCF)C3)cc2F)N1CC(F)(F)CO`, for which the GI50 is 11.9 µM in assay [1]; 5.24 µM in assay [2]; 14.1 µM in assay [4]; 1.77 µM in assay [5]; 7.71 µM in assay [6]; 6.1 µM in assay [7]. Besides, the GI50 is 3.28 µM in assay [8], 1.93 µM in assay [9] and 3.89 µM in assay [10]. In addition, the TGI was found to be 25.6 µM in assay [1]; 20.8 µM in assay [2]; 4.27 µM in assay [3]; 27.9 µM in [4]; 3.72 µM in [5]; 25.8 µM in assay [6]. Moreover, the TGI in assay [7] came out at 21.2 µM; in [8], 13 µM; in [9], 4 µM; in assay [10], 15.1 µM.

For `C=C1c2[nH]c3ccccc3c2C2C(CC)C1CCN2C` (centres undefined), the TGI in assay [1] is more than 100 µM; in assay [2] it was more than 100 µM; in assay [3] it was more than 100 µM; in assay [4] it was more than 100 µM; in [5] it was 56.5 µM; in [6], more than 100 µM. The TGI in assay [7] is more than 100 µM; in assay [8], more than 100 µM; in assay [9] it was 37.8 µM; in assay [10] it was more than 100 µM.

For `COC1=CC(=O)C(OC)=C(OC)C1=O`, the GI50 was 14.9 µM in assay [1]; 2.33 µM in assay [2]; 21.5 µM in assay [3]; 17.3 µM in assay [4]; 18 µM in assay [5]; 18.7 µM in [6]. The GI50 in assay [7] was 15.1 µM; in [8], 18 µM; in assay [9], more than 100 µM; in [10], 3.16 µM. Moreover, the TGI in assay [1] was found to be 30 µM; in [2], 5.13 µM; in assay [3], 53.1 µM; in assay [4], 33 µM; in assay [5], 35.6 µM; in assay [6] it was 39.2 µM. Further, the TGI in assay [7] is 29.3 µM; in assay [8], 35.1 µM; in [9] it was more than 100 µM; in assay [10], 11.1 µM.

For the molecule `Nc1ccccc1NC(=O)c1ccc(CCCC(=O)Nc2ccc(C3CC3N)cc2)cc1` (centres undefined), the GI50 is 2.29 µM in [1]; 2.77 µM in assay [2]; 1.71 µM in assay [3]; 0.925 µM in assay [4]; 0.559 µM in assay [5]; 1.85 µM in assay [6]. Besides, the GI50 in assay [7] is 1.34 µM; in assay [8], 1.08 µM; in [9], 1.72 µM; in assay [10], 1.57 µM. Further, the TGI in assay [1] was 33.8 µM; in [2], 48 µM; in assay [3], more than 100 µM; in assay [4], 37.6 µM; in assay [5], 7.2 µM; in assay [6], 69.4 µM. Further, the TGI in assay [7] stood at 4.06 µM; in assay [8] it was 29.5 µM; in assay [9], 5.65 µM; in [10], 9.05 µM.

Regarding `CC(=O)N1c2ccccc2NC2=C(C(=O)N(Cc3ccccc3)C2(C)C)C1c1ccco1` (centres undefined), the GI50 was 0.494 µM in assay [1]; 0.364 µM in [2]; 0.368 µM in [3]; 0.44 µM in assay [4]; 1.2 µM in assay [5]; more than 25 µM in assay [6]. Moreover, the GI50 was 0.665 µM in assay [7], 0.58 µM in assay [8], 0.608 µM in assay [9] and 0.277 µM in assay [10]. The TGI in [1] was more than 25 µM; in [2] it was more than 11.3 µM; in assay [3], more than 25 µM; in [4] it was more than 25 µM; in assay [5] it was more than 25 µM; in [6] it was more than 25 µM. Also, the TGI is more than 25 µM in assay [7], more than 25 µM in [8], more than 7.95 µM in [9] and 0.859 µM in assay [10].

Regarding `Fc1ccc(-c2ncn(C3CCNCC3)c2-c2ccnc(Oc3ccc(F)c(F)c3)n2)cc1`, the GI50 in [1] was more than 17.8 µM; in assay [2], 5.59 µM; in assay [3], 4.28 µM; in [4], 7.78 µM; in [5], 5.19 µM; in [6], 9.34 µM. For the same molecule, the GI50 in [7] was 5 µM; in assay [8], 4.36 µM; in [9], 3.84 µM; in assay [10], 6.44 µM. Moreover, the TGI in assay [1] is more than 25 µM; in [2] it was 12 µM; in assay [3], 8.27 µM; in [4] it was more than 25 µM; in assay [5] it was 9.85 µM; in assay [6], more than 25 µM. For the same molecule, the TGI is 11.7 µM in [7], 8.98 µM in [8], 7.77 µM in assay [9] and more than 15.5 µM in assay [10].
